Reference: PMC10788856, “Mimicking Nonribosomal Peptides from the Marine Actinomycete Streptomyces sp. H-KF8 Leads to Antimicrobial Peptides” (ACS Infectious Diseases, 2023)
Square brackets hold non-standard residues; d marks the D form. Peptide text beside a SMILES is read from it. Tyr(3-NO2) = N[C@@H](Cc1ccc(O)c([N+](=O)[O-])c1)C(=O)O; Orn = NCCC[C@H](N)C(=O)O

What was measured:
[1] = system: S. aureus; experiment: microbe, parasite or virus in culture; assay type: cell-based; conditions: 16 h
[2] = system: C. albicans; experiment: microbe, parasite or virus in culture; assay type: cell-based; conditions: 16 h
[3] = system: hepatoblastoma (HepG2) cells; assay type: cell-based, human
Description: (§1) To confirm the peptide selectivity toward bacteria cells, cytotoxicity assays of synthesized peptides L2, L3, L3-K, and C3 against human embryonic kidney (HEK) and hepatoblastoma (HepG2) were performed (Figure 4). The cell viability was assessed using resazurin 24 h post peptide exposure. The line at 70% cell viability marks out the threshold for cytotoxic potential compared to the negative control.
(§2) Figure 4 Cell viability assessment using the resazurin assay 24 h post peptide exposure: (a) HepG2 and (b) HEK cells were treated with various concentrations of the peptides C3, L3, L3-K, and L2. Triton-X was used as a positive control. Cells cultured in pure cell media were used as negative controls and were considered to have 100% cell viability. The line represents the threshold for cytotoxicity level of 70% of cell viability compared to the negative control. Data are presented as the mean ± SD of three biological replicates of the HepG2 cells and the mean ± SD of two biological replicates of the HEK cells.
(§3) Cytotoxicity against human embryonic kidney (HEK) and hepatoblastoma (HepG2) cell lines was assessed. Cells were grown to an initial seeding density of 10 000 cells per well. Metabolic activity was determined in a resazurin-based assay. HEK and HepG2 cells were exposed to four different concentrations of the peptides for 24 h. Treatment with Triton X-100 at 1% v/v was used as a positive control. Following this exposure period, the cells were treated with resazurin at a final concentration of 0.015 mg/mL for 3 h. The metabolic activity was then determined in an resazurin-based assay. The fluorescence intensities were quantified in a Hidex Sense microplate reader using an excitation wavelength of 544 nm and an emission wavelength of 590 nm.

[4] = 37 °C, RP-HPLC; for stability in human serum: human serum from male AB plasma, 250 μL serum + 100 μL aqueous peptide solution (L2 1 mM; L3 0.9 mM; L3-K 0.7 mM; C3 0.5 mM), 0, 0.5, 1, 4, 24 h, Fmoc-Gly internal standard; for additional peaks / shoulder in chromatogram after 24 h in serum, total volume percentage: human serum, detection at 254 nm
Description: Peptide stability in serum is another limiting factor for AMPs as novel antibiotics.[30]
Peptide serum stability was performed according to D́Aloisio et al.[30] and Chen et al.[51] with some minor modifications. The serum stability was investigated using human serum (Sigma-Aldrich) from Human male AB plasma, USA origin, sterile-filtered. 250 μL serum was temperature-equilibrated at 37 °C and 100 μL aqueous peptide solution (L2: 1 mM; L3: 0.9 mM; L3-K: 0.7 mM; and C3: 0.5 mM) was added. RP-HPLC was measured at time intervals of 0, 0.5, 1, 4, and 24 h. For RP-HPLC samples, 30 μL of peptide solution was taken, 7 μL of Fmoc-Gly solution (4 mM) was added, and 2 μL of the sample was injected to HPLC. […]
Figure S 133. RP-HPLC chromatogram (gradient from 10 to 90% acetonitrile in water over 10 min at 2
ml/min, detection at 254 nm) of peptides tested for serum stability. A) peptide L2 B) peptide L3. C)
(1 picture or pasted object on this page, not shown here)

[5] = system: human embryonic kidney (HEK) cells; assay type: cell-based
Description: as §1, §2, §3

[6] = set-up: method as in PMID 20518462; conditions: nitrotyrosine side chain; cited from earlier work
[7] = system: E. coli CCUG31246; assay type: cell-based; conditions: CCUG31246, 16 h
Description: MICs were performed under the same growth conditions used for mode of action analysis following the guidelines issued by the Clinical Laboratory Standardization Institute (CLSI) with slight modifications. Serial two-fold dilutions of the peptides were prepared in 1:10 BHI in a sterile 96-well plate and subsequently inoculated with 5 × 10^5 CFU/mL of E. coli CCUG31246. […] The following MICs were obtained: C3: 512 μg/mL, L3: 64 μg/mL, and L3-K: 128 μg/mL. These concentrations were used for all mechanistic experiments. Polymyxin B was used as a positive control in all assays at a final concentration of 10 μg/mL.

| Structure (SMILES) | S. aureus MIC [1] [µg/mL] | C. albicans MIC [2] [µg/mL] | cytotoxicity, cell viability HepG2 [3] | stability in human serum [4] | additional peaks / shoulder in chromatogram after 24 h in serum, total volume percentage [4] [%] | cytotoxicity, cell viability HEK [5] | pKa value [6] | E. coli MIC [7] [µg/mL] |
| --- | --- | --- | --- | --- | --- | --- | --- | --- |
| CC(C)[C@@H](NC(=O)[C@H](CCCN)NC(=O)[C@@H](NC(=O)[C@H](CCCN)NC(=O)[C@H](Cc1c[nH]c2ccccc12)NC(=O)[C@@H](C)NC(=O)[C@H](NC(=O)[C@@H](C)NC(=O)[C@@H](N)Cc1c[nH]c2ccccc12)C(C)C)[C@@H](C)O)C(=O)N[C@@H](Cc1ccc(O)c([N+](=O)[O-])c1)C(N)=O [L3-K] (H-W[dA][dV][dA]W[Orn]T[Orn][dV][Tyr(3-NO2)]-NH2) | 418.7 | 248 | no cytotoxicity at any tested concentration | stable after 24 h | 1.3 | no cytotoxicity at any tested concentration |  |  |
| N[C@@H](Cc1ccc(O)c([N+](=O)[O-])c1)C(=O)O [Y-NO2] |  |  |  |  |  |  | 7.1 |  |
| CC(C)[C@@H](NC(=O)[C@H](CCCN)NC(=O)[C@@H](NC(=O)[C@H](CCCN)NC(=O)[C@H](Cc1c[nH]c2ccccc12)NC(=O)[C@@H](C)NC(=O)[C@H](NC(=O)[C@@H](C)NC(=O)[C@@H](N)Cc1c[nH]c2ccccc12)C(C)C)[C@@H](C)O)C(=O)N[C@@H](Cc1ccc(O)c([N+](=O)[O-])c1)C(=O)N[C@@H](CCCCN)C(N)=O [L3] (H-W[dA][dV][dA]W[Orn]T[Orn][dV][Tyr(3-NO2)]K-NH2) | 248 |  | no cytotoxicity at any tested concentration | stable after 24 h | 0.6 | no cytotoxicity at any tested concentration |  | 64 |
| CC(C)[C@@H](NC(=O)[C@H](CCCN)NC(=O)[C@@H](NC(=O)[C@H](CCCN)NC(=O)[C@H](Cc1c[nH]c2ccccc12)NC(=O)[C@@H](C)NC(=O)[C@H](NC(=O)[C@@H](C)N)C(C)C)[C@@H](C)O)C(=O)N[C@@H](CCCCN)C(N)=O [L2] (H-[dA][dV][dA]W[Orn]T[Orn][dV]K-NH2) | >512 | >512 | no cytotoxicity at any tested concentration | stable after 24 h | 0.4 | no cytotoxicity at any tested concentration |  | >512 |
